In US20260365670A1, “EGFR INHIBITORS AND USES THEREOF” (DIZAL (JIANGSU) PHARMACEUTICAL CO., LTD., priority 2022, published 2026):
Where two headings read alike, the source gives them in different places.

Columns and labels:
EGFR[T790M/C797S/L858R] = molecular target: T1, EGFR[T790M/C797S/L858R] (Homo sapiens, UniProt P00533, C797S/L858R/T790M); experiment: Inhibition of EGFR[T790M/C797S/L858R] biochemical enzymatic activity (HTRF); details: 1 mM ATP
T1 construct: purchased Carna Bio
Method: (§1) Biological Example 1: Inhibition of EGFR WT and Mutant Biochemical Enzymatic Activity
(§2) The inhibition potency of compounds against these enzymes was assessed using Homogenous Time Resolved Fluorescence approach (HTRF, CisBio. Cat No. 62TKOPEJ).
(§3) Inhibitory effects of the compounds were determined by measuring the enzymatic activity of EGFR enzyme phosphorylates 1 μM TK Substrate-biotin in the presence of 1 mM adenosine-5′-triphosphate (ATP) and varying concentrations of the test compound. The enzyme reaction buffer contains 5 mM MgCl2, 1 mM MnC12, 0.01% CHAPS, 1 mM dithiothreitol (DTT), 0.5% dimethylsulfoxide (DMSO), and 1× supplemented enzymatic buffer. The WT and mutant EGFR enzymes (SignalChem) were added to plates containing inhibitors, followed by activation of the kinase reaction by addition of ATP and peptide substrates. After incubation for 1 h at room temperature, the reaction was stopped by the addition of the detection reagent mix containing EDTA. The fluorescence was measured at 615 nm and 665 nm, respectively with excitation wavelength at 320 nm. The calculated signal ratio of 665 nm/615 nm is proportional to the kinase activity. The concentration of compound producing 50% inhibition of the respective kinase (IC50) was calculated using four-parameter logistic fit with XL-FIT.

EGFR (d746-750 C797S) = molecular target: T2, EGFR (d746-750 C797S) (Homo sapiens, UniProt P00533, C797S/DEL746-750); experiment: Inhibition of EGFR (d746-750 C797S) biochemical enzymatic activity (HTRF); details: 1 mM ATP
T2 construct: purchased signalchem
Method: as §1, §2, §3

EGFR wild type = molecular target: T3, EGFR wild type (Homo sapiens, UniProt P00533); experiment: Inhibition of EGFR wild type biochemical enzymatic activity (HTRF); details: 1 mM ATP
T3 construct: purchased Carna Bio
Method: as §1, §2, §3

EGFR L858R/T790M = molecular target: T4, EGFR L858R/T790M (Homo sapiens, UniProt P00533, L858R/T790M); experiment: Inhibition of EGFR L858R/T790M biochemical enzymatic activity (HTRF); details: 1 mM ATP
T4 construct: purchased Carna Bio
Method: as §1, §2, §3

[1] = molecular target: T5, EGFR[T790M/C797S/d746-750] (Homo sapiens, UniProt P00533, C797S/DEL746-750/T790M); experiment: Inhibition of EGFR[T790M/C797S/d746-750] biochemical enzymatic activity (HTRF)
T5 construct: purchased Carna Bio
Method: as §1, §2, §3

EGFR Exon19Del/T790M = molecular target: T6, EGFR Exon19Del/T790M (Homo sapiens, UniProt P00533, DEL746-750/T790M); experiment: Inhibition of EGFR Exon19Del/T790M biochemical enzymatic activity (HTRF); details: 1 mM ATP
T6 construct: purchased Carna Bio
Method: as §1, §2, §3

EGFR L858R = molecular target: T7, EGFR L858R (Homo sapiens, UniProt P00533, L858R); experiment: Inhibition of EGFR L858R biochemical enzymatic activity (HTRF); details: 1 mM ATP
T7 construct: purchased Carna Bio
Method: as §1, §2, §3

[2] = system: Ba/F3 cells expressing EGFR mutations; experiment: Cell proliferation assay, Ba/F3 cells expressing EGFR mutations (CellTiter-Glo, 72 hours); assay type: cell-based
Method: Biological Example 2: Cell Proliferation Assays
Ba/F3 cells expressing EGFR mutations were seeded in 384-well plates at 5000 cells/well in RPMI1640 medium containing […]. PC-9 at 500 cells/well was seeded into 384-well plates in RPMI1640 medium with 10% FBS. After overnight incubation, the assay plates were dosed with compounds at a series of concentrations. Alongside dosing the assay plates, the day 0 plate was processed using CellTiter-Glo® Luminescent Cell Viability Assay (Promega) to measure the number of viable cells (G0). The assay plates were further incubated for 72 hours and the number of viable cells (G3) was measured. The percentage of proliferation was calculated as: […]=100×(G3 value of sample well−G0 value)/(G3 value of DMSO control−G0 value). The concentration of compound producing 50% proliferation inhibition (GI50) was further calculated in best-fit curves using XLFit software. N/A=not available.

EGFR Exon19Del = molecular target: T8, EGFR Exon19Del (Homo sapiens, UniProt P00533, DEL746-750); experiment: Inhibition of EGFR Exon19Del biochemical enzymatic activity (HTRF); details: read-out: IC50 @Del19
T8 construct: purchased Carna Bio
Method: as §1, §2, §3

EGFR (C797S L858R) = molecular target: T9, EGFR (C797S L858R) (Homo sapiens, UniProt P00533, C797S/L858R); experiment: Inhibition of EGFR (C797S L858R) biochemical enzymatic activity (HTRF); details: 1 mM ATP
T9 construct: purchased signalchem
Method: as §1, §2, §3

PC-9 = experiment: Cell proliferation assay, PC-9 cells (CellTiter-Glo, 72 hours); assay type: cell-based; details: PC9 cells
How it was run: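 Luminescent viable-cell counts were taken on a day 0 plate at dosing and again at endpoint. Proliferation was calculated as (sample − G0)/(DMSO − G0). Seeding was 5000 Ba/F3 or 500 PC-9 cells per well in RPMI1640, followed by overnight attachment and serial compound dilutions. The GI50 was fitted.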

[3] = EGFR T790M-C797S-L858R, 1 h, room temperature, read-out: IC50 (nM) @T790M- C797S - L858R
[4] = EGFR Del19-C797S, 1 h, room temperature, read-out: IC50 (nM) @Del19-C797S
[5] = EGFR WT, 1 h, room temperature, read-out: IC50 (nM) @WT
[6] = EGFR L858R-T790M, 1 h, room temperature, read-out: IC50 (nM) @L858R-T790M
[7] = EGFR T790M-C797S-Del19, 1 mM ATP, 1 h, room temperature, read-out: IC50 (nM) @T790M - C797S - Del19
[8] = EGFR Del19-T790M, 1 h, room temperature, read-out: IC50 (nM) @Del19-T790M
[9] = 1 h, room temperature, read-out: IC50 (nM) @L858R
[10] = BaF3 cells, EGFR DEL19-C797S, CellTiter-Glo, read-out: DEL19-C797S/BaF3 GI50
[11] = BaF3 cells, EGFR DEL19-T790-C797S, CellTiter-Glo, read-out: DEL19-T790-C797S/BaF3 GI50
[12] = BaF3 cells, EGFR L858R, CellTiter-Glo, read-out: L858R/BaF3 GI50
[13] = BaF3 cells, EGFR L858R-C797S, CellTiter-Glo, read-out: L858R-C797S/BaF3 GI50
[14] = BaF3 cells, EGFR L858R-T790-C797S, CellTiter-Glo, read-out: L858R-T790-C797S/BaF3 GI50
[15] = BaF3 cells, EGFR L858R-T790M, CellTiter-Glo, read-out: L858R-T790M/BaF3 GI50
[16] = EGFR DEL19-T790M, CellTiter-Glo, read-out: DEL19-T790M GI50
[17] = EGFR Del19, 1 mM ATP, 1 h, room temperature
[18] = EGFR L858-C797S, 1 h, room temperature, read-out: IC50 (nM) @L858-C797S
[19] = CellTiter-Glo, read-out: PC9 GI50
[20] = EGFR[T790M/C797S/L858R], 1 h at room temperature, read-out: IC50 @T790M- C797S - L858R
[21] = EGFR (d746-750 C797S), 1 h at room temperature, read-out: IC50 @Del19-C797S
[22] = EGFR wild type, 1 h at room temperature, read-out: IC50 @WT
[23] = EGFR L858R/T790M, 1 h at room temperature, read-out: IC50 @L858R-T790M
[24] = EGFR[T790M/C797S/d746-750], 1 mM ATP, 1 h at room temperature, read-out: IC50 @T790M - C797S - Del19
[25] = EGFR Exon19Del/T790M, 1 h at room temperature, read-out: IC50 @Del19-T790M
[26] = 1 h at room temperature, read-out: IC50 @L858R
[27] = BaF3 cells, EGFR DEL19 - C797S, read-out: GI50 DEL19 - C797S/BaF3
[28] = BaF3 cells, EGFR DEL19 - T790-C797S, read-out: GI50 DEL19 - T790-C797S/BaF3
[29] = BaF3 cells, EGFR L858R - C797S, read-out: GI50 L858R - C797S/BaF3
[30] = BaF3 cells, EGFR L858R - T790-C797S, read-out: GI50 L858R - T790-C797S/BaF3
[31] = BaF3 cells, EGFR L858R - T790M, read-out: GI50 L858R - T790M/BaF3
[32] = BaF3 cells, EGFR L858R, read-out: GI50 L858R/BaF3
[33] = EGFR DEL19 - T790M, read-out: GI50 DEL19 - T790M
[34] = EGFR Exon19Del, 1 mM ATP, 1 h at room temperature
[35] = EGFR (C797S L858R), 1 h at room temperature, read-out: IC50 @L858-C797S

T3 sequence (P00533 25-1210): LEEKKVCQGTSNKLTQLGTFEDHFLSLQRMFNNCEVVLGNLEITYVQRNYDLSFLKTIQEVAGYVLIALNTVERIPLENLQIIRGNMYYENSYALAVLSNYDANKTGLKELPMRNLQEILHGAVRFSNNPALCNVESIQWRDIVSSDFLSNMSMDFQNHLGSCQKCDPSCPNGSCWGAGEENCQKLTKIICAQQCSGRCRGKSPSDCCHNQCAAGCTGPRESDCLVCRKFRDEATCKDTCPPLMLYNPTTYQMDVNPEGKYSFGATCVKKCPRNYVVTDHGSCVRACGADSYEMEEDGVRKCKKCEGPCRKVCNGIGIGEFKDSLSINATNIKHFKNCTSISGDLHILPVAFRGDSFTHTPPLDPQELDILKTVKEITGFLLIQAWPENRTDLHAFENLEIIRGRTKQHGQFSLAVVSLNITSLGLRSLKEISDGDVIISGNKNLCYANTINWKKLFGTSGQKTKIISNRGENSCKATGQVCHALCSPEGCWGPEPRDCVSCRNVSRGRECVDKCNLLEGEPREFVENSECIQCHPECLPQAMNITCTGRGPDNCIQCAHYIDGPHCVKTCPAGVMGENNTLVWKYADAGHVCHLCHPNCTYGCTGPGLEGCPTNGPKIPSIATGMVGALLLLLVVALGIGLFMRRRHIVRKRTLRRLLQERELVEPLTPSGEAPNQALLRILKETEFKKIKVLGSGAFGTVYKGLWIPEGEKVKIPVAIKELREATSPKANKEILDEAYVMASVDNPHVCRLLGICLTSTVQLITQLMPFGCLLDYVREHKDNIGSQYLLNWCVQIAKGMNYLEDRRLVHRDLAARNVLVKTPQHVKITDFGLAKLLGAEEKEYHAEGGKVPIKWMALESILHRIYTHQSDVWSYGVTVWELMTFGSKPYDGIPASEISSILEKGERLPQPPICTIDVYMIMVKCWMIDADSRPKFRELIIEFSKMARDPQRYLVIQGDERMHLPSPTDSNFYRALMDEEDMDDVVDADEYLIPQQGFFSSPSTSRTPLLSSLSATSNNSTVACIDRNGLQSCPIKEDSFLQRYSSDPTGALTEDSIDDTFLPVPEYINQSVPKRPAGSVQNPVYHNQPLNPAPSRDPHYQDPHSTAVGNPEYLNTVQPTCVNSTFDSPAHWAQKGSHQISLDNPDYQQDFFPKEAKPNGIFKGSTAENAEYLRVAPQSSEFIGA
T1 sequence (P00533 25-1210 T790M/C797S/L858R): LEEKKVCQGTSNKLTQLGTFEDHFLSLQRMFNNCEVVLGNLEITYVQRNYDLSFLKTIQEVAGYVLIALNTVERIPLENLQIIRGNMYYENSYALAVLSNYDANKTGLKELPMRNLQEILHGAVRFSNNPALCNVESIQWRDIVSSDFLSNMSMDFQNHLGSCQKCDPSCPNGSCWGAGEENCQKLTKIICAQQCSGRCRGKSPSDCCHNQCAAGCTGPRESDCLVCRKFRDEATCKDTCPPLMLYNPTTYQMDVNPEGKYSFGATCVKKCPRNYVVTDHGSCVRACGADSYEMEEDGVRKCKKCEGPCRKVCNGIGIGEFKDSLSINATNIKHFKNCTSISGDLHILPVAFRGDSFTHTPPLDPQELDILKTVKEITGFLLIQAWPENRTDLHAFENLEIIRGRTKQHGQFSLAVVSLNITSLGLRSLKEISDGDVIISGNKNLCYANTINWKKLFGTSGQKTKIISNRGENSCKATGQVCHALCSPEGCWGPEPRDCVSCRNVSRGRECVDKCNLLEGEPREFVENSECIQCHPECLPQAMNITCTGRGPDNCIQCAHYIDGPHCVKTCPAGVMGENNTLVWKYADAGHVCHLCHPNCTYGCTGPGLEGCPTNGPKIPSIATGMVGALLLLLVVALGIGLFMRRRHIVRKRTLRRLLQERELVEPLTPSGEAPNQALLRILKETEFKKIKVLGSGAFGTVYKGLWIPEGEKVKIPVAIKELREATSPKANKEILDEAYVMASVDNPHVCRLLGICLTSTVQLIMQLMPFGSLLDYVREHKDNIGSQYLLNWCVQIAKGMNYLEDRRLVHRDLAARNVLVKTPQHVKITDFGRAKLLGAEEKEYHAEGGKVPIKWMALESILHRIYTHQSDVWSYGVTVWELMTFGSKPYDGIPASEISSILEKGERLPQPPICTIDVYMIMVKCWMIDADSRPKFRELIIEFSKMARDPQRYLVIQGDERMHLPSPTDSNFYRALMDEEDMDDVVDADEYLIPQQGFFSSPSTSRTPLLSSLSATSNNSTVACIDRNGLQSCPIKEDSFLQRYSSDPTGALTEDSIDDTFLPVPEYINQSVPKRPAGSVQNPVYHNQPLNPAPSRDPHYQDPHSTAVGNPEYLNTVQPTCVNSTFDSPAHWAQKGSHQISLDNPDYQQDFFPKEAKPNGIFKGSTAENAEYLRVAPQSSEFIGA
T7 sequence (P00533 25-1210 L858R): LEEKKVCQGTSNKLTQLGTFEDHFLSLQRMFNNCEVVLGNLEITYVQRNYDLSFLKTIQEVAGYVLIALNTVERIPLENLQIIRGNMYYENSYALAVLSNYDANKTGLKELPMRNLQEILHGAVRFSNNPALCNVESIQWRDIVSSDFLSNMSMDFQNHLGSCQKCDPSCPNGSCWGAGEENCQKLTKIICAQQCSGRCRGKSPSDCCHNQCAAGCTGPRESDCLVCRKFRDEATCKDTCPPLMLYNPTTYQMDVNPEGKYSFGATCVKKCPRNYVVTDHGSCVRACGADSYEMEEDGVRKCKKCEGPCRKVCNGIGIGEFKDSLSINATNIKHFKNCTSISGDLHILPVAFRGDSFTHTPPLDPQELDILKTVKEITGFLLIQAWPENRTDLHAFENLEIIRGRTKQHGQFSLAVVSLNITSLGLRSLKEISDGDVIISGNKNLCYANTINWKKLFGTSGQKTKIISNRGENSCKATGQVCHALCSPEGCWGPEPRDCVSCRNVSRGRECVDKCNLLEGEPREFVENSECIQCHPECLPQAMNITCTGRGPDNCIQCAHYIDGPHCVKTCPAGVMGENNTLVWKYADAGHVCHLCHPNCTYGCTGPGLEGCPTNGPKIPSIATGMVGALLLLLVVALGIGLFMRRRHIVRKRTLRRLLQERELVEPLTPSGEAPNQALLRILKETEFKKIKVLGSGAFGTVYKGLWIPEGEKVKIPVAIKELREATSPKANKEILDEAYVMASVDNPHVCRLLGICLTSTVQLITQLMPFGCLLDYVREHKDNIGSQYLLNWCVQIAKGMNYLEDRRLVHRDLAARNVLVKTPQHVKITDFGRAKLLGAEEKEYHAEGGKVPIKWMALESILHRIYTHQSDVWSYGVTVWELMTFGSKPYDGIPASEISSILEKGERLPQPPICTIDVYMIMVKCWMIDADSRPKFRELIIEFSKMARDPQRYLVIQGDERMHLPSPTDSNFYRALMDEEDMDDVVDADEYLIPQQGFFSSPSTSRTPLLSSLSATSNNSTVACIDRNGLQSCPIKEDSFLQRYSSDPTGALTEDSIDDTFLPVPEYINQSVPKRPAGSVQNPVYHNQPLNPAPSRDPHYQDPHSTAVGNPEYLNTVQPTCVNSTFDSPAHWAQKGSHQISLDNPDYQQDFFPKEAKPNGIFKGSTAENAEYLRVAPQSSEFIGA
T8 sequence (P00533 with tags, fused parts or gaps DEL746-750 limits assumed): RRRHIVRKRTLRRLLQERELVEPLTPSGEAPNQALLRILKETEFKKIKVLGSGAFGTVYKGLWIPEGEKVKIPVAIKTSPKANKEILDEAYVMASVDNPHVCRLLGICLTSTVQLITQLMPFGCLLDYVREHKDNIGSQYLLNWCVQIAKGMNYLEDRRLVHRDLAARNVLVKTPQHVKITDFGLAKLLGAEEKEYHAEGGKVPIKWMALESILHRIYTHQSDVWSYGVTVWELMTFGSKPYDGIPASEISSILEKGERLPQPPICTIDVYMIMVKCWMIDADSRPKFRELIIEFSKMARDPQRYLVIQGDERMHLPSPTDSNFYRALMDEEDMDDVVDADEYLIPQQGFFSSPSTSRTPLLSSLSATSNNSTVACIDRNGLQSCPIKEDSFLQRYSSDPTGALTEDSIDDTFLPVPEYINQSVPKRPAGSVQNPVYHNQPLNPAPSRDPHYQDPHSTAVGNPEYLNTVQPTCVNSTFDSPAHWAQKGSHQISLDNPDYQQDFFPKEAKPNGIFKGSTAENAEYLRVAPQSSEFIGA
T5 sequence (P00533 with tags, fused parts or gaps DEL746-750/T790M/C797S limits assumed): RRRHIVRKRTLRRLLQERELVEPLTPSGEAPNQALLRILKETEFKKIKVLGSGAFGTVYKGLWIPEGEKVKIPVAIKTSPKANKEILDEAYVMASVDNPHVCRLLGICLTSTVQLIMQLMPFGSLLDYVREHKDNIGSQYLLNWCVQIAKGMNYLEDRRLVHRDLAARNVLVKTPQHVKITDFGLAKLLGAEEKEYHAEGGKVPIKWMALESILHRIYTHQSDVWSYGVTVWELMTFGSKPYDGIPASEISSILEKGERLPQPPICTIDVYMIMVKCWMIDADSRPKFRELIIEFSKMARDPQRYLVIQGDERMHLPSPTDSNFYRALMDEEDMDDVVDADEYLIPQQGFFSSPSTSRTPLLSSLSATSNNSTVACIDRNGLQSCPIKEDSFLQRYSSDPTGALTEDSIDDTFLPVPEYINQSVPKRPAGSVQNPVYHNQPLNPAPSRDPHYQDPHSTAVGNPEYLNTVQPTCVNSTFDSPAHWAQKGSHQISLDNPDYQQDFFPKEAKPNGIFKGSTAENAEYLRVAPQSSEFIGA

SMILES	IC50 (EGFR[T790M/C797S/L858R]; [3])	IC50 (EGFR (d746-750 C797S); [4])	IC50 (EGFR wild type; [5])	IC50 (EGFR L858R/T790M; [6])	IC50 [1, 7]	IC50 (EGFR Exon19Del/T790M; [8])	IC50 (EGFR L858R; [9])	GI50 [2, 10]	GI50 [2, 11]	GI50 [2, 12]	GI50 [2, 13]	GI50 [2, 14]	GI50 [2, 15]	GI50 [2, 16]	IC50 (EGFR Exon19Del; [17])	IC50 (EGFR (C797S L858R); [18])	GI50 (PC-9; [19])	IC50 (EGFR[T790M/C797S/L858R]; [20])	IC50 (EGFR (d746-750 C797S); [21])	IC50 (EGFR wild type; [22])	other results
CN1CCN(C2CCN(c3ccc4nc5n(c4c3)C34CCC(CN(CCOc6c(cnn6C)-c6cc(cn(C)c6=O)C(=O)N5)C3)C4)C2)CC1 (single isomer, unassigned) [Example A80A2, 15,21-Dimethyl-5-[3-(4-methylpiperazin-1-yl)pyrrolidin-1-yl]-23-oxa-2,9,11,15,20,21,26-heptaazaheptacyclo[24.4.1.1^{1,28}.1^{13,17}.0^{2,10}.0^{3,8}.0^{18,22}]tritriaconta-3,5,7,9,13,17(33),18(22),19-octaene-12,16-dione]	> 5000 nM	530 nM	> 5000 nM	> 5000 nM	2190 nM	> 5000 nM	> 5000 nM	57 nM	170 nM	100 nM	125 nM	126 nM	315 nM	136 nM	490 nM	> 5000 nM	381 nM				
CN(C)C1CN(c2ccc3nc4n(c3c2)C23CCC(CN(CCOc5c(cnn5C)-c5cc(cn(C)c5=O)C(=O)N4)C2)C3)CC1F (single isomer, unassigned) [Example A84B, 15,21-Dimethyl-5-[4-fluoro-3-(N,N-dimethylamino)pyrrolidinyl]-23-oxa-2,9,11,15,20,21,26-heptaazaheptacyclo[24.4.1.1^{1,28}.1^{13,17}.0^{2,10}.0^{3,8}.0^{18,22}]tritriaconta-3,5,7,9,13,17(33),18(22),19-octaene-12,16-dione]	> 5000 nM	400 nM	> 5000 nM	> 5000 nM	> 5000 nM	> 5000 nM	1310 nM	157 nM	516 nM	480 nM	302 nM	1040 nM	997 nM	545 nM	451 nM	1140 nM	768 nM				
Cc1cc2cc(n1)-c1cnn(C)c1OCCN1CC3CCC(C3)(C1)n1c(nc3ccc(N4CC5CN(C)CC5C4)cc31)NC2=O (single isomer, unassigned) [Example B43A]																		> 5000 nM	> 5000 nM	> 5000 nM	IC50 (EGFR L858R/T790M; [23]): > 5000 nM; IC50 [1, 24]: 200 nM; IC50 (EGFR Exon19Del/T790M; [25]): 1160 nM; IC50 (EGFR L858R; [26]): > 5000 nM; GI50 [2, 27]: 193 nM; GI50 [2, 28]: 200 nM; GI50 [2, 29]: 442 nM; GI50 [2, 30]: 68 nM; GI50 [2, 31]: 305 nM; GI50 [2, 32]: 998 nM; GI50 [2, 33]: 271 nM; IC50 (EGFR Exon19Del; [34]): > 5000 nM; IC50 (EGFR (C797S L858R); [35]): > 5000 nM; GI50 (PC-9; read-out: GI50 PC9): 1320 nM
Cc1cc2cc(n1)-c1cnn(C)c1OCCN1CC3CCC(C3)(C1)n1c(nc3ccc(N4CCC(N5CCOCC5)C4)cc31)NC2=O (single isomer, unassigned) [Example B44A2]																		> 5000 nM	> 5000 nM	> 5000 nM	IC50 (EGFR L858R/T790M; [23]): > 5000 nM; IC50 [1, 24]: > 5000 nM; IC50 (EGFR Exon19Del/T790M; [25]): > 5000 nM; IC50 (EGFR L858R; [26]): > 5000 nM; GI50 [2, 27]: 873 nM; GI50 [2, 28]: 1290 nM; GI50 [2, 29]: 3820 nM; GI50 [2, 30]: 343 nM; GI50 [2, 31]: 1080 nM; GI50 [2, 32]: 9400 nM; GI50 [2, 33]: 3760 nM; IC50 (EGFR Exon19Del; [34]): > 5000 nM; IC50 (EGFR (C797S L858R); [35]): > 5000 nM; GI50 (PC-9; read-out: GI50 PC9): 3560 nM
